Results as given in ChEMBL document CHEMBL5143597, “Design and synthesis of novel spirocyclic carboxylic acids as potent and orally bioavailable DGAT1 inhibitors and their biological evaluation” (Bioorg Med Chem Lett, 2022).
Activity calls are given as the source filed them. The rule behind the calls is not given here.

Tests used:
Mus musculus [1] = assay: In vivo inhibition of DGAT1 in C57BL/6 mouse model of acute lipid challenge assessed as reduction in AUC plasma triglyceride level at 3 to 10 mg/kg, po as corn oil bolus by Oral lipid tolerance test relative to control; type: functional, organism-based; conditions: dose 3-10 mg/kg
Mus musculus [2] = assay: In vivo inhibition of DGAT1 in C57BL/6 mouse model of acute lipid challenge assessed as reduction in chylomicron derived plasma triglyceride excursion at 3 to 10 mg/kg, po as corn oil bolus by Oral lipid tolerance test relative to control; type: functional, organism-based; conditions: dose 3-10 mg/kg
[3] = Drug distribution in C57BL/6 mouse adipose tissue 10 mg/kg, po and measured at 1 hrs post dose by LC-MS/MS analysis; type: ADME, organism-based; conditions: read-out: Ct
[4] = Half life in Wistar rat at 3 mg/kg, iv or 10 mg/kg, po and measured up to 24 hrs by LC-MS/MS analysis; type: ADME, organism-based; conditions: in vivo
[5] = Drug distribution in C57BL/6 mouse plasma 10 mg/kg, po and measured at 8 hrs post dose by LC-MS/MS analysis; type: ADME, organism-based
[6] = Clearance in C57BL/6 mouse at 3 mg/kg, iv or 10 mg/kg, po and measured up to 24 hrs by LC-MS/MS analysis; type: ADME, organism-based; conditions: in vivo
[7] = Drug distribution in C57BL/6 mouse skeletal muscle 10 mg/kg, po and measured at 2 hrs post dose by LC-MS/MS analysis; type: ADME, organism-based, Skeletal muscle tissue; conditions: read-out: Ct
[8] = Plasma protein binding in mouse; type: ADME, cell-free; conditions: read-out: PPB (converted)
[9] = AUC in C57BL/6 mouse at 3 mg/kg, iv or 10 mg/kg, po and measured up to 24 hrs by LC-MS/MS analysis; type: ADME, organism-based; design: time < 24 hrs, dose 3 mg/kg, route iv; conditions: in vivo
[10] = Drug distribution in C57BL/6 mouse skeletal muscle 10 mg/kg, po and measured at 8 hrs post dose by LC-MS/MS analysis; type: ADME, organism-based, Skeletal muscle tissue; conditions: read-out: Ct
[11] = Cmax in C57BL/6 mouse at 3 mg/kg, iv or 10 mg/kg, po and measured up to 24 hrs by LC-MS/MS analysis; type: ADME, organism-based; design: dose 3 mg/kg, time < 24 hrs, route iv; conditions: in vivo
[12] = Oral bioavailability in C57BL/6 mouse 10 mg/kg or 3 mg/kg, iv and measured up to 24 hrs by LC-MS/MS analysis; type: ADME, organism-based; conditions: in vivo
[13] = Volume of distribution at steady state in C57BL/6 mouse at 3 mg/kg, iv or 10 mg/kg, po and measured up to 24 hrs by LC-MS/MS analysis; type: ADME, organism-based; conditions: in vivo, read-out: Vdss
[14] = Drug distribution in C57BL/6 mouse liver 10 mg/kg, po and measured at 8 hrs post dose by LC-MS/MS analysis; type: ADME, organism-based; conditions: read-out: Ct
[15] = Drug distribution in C57BL/6 mouse liver 10 mg/kg, po and measured at 2 hrs post dose by LC-MS/MS analysis; type: ADME, organism-based; conditions: read-out: Ct
[16] = Cmax in Wistar rat at 3 mg/kg, iv or 10 mg/kg, po and measured up to 24 hrs by LC-MS/MS analysis; type: ADME, organism-based; design: dose 3 mg/kg, time < 24 hrs, route iv; conditions: in vivo
hERG (KCNH2) = hERG (KCNH2) (Homo sapiens, UniProt Q12809); assay: Displacement of [3H]astemizole from human ERG expressed in HEK293 cell membrane at 10 uM for 2 hrs by Radiometric displacement assay; type: toxicity; conditions: HEK293 cell membranes that express hERG, probe [3H]astemizole
[17] = Drug distribution in C57BL/6 mouse plasma 10 mg/kg, po and measured at 1 hrs post dose by LC-MS/MS analysis; type: ADME, organism-based
[18] = Metabolic stability in rat liver microsomes assessed as parent compound remaining at 1 uM and measured at 30 mins by LC-MS/MS analysis; type: ADME, Microsome; conditions: read-out: Stability
[19] = Metabolic stability in mouse liver microsomes assessed as parent compound remaining at 1 uM and measured at 30 mins by LC-MS/MS analysis; type: ADME, Microsome; conditions: read-out: Stability
[20] = Tmax in C57BL/6 mouse at 3 mg/kg, iv or 10 mg/kg, po and measured up to 24 hrs by LC-MS/MS analysis; type: ADME, organism-based; conditions: in vivo
[21] = Half life in C57BL/6 mouse at 3 mg/kg, iv or 10 mg/kg, po and measured up to 24 hrs by LC-MS/MS analysis; type: ADME, organism-based; conditions: in vivo
[22] = Volume of distribution at steady state in Wistar rat at 3 mg/kg, iv or 10 mg/kg, po and measured up to 24 hrs by LC-MS/MS analysis; type: ADME, organism-based; conditions: in vivo, read-out: Vdss
[23] = Drug distribution in C57BL/6 mouse skeletal muscle 10 mg/kg, po and measured at 1 hrs post dose by LC-MS/MS analysis; type: ADME, organism-based, Skeletal muscle tissue; conditions: read-out: Ct
[24] = Drug distribution in C57BL/6 mouse brain 10 mg/kg, po and measured at 1 hrs post dose by LC-MS/MS analysis; type: ADME, organism-based; conditions: read-out: Ct
[25] = Oral bioavailability in Wistar rat at 10 mg/kg or 3 mg/kg, iv and measured up to 24 hrs by LC-MS/MS analysis; type: ADME, organism-based; conditions: in vivo
[26] = Drug distribution in C57BL/6 mouse brain 10 mg/kg, po and measured at 2 hrs post dose by LC-MS/MS analysis; type: ADME, organism-based; conditions: read-out: Ct
[27] = Drug distribution in C57BL/6 mouse adipose tissue 10 mg/kg, po and measured at 8 hrs post dose by LC-MS/MS analysis; type: ADME, organism-based; conditions: read-out: Ct
[28] = AUC in Wistar rat at 3 mg/kg, iv or 10 mg/kg, po and measured up to 24 hrs by LC-MS/MS analysis; type: ADME, organism-based; design: dose 3 mg/kg, time < 24 hrs, route iv; conditions: in vivo
[29] = Plasma protein binding in rat; type: ADME, cell-free; conditions: read-out: PPB
[30] = Metabolic stability in human liver microsomes assessed as parent compound remaining at 1 uM and measured at 30 mins by LC-MS/MS analysis; type: ADME, Microsome; conditions: read-out: Stability
[31] = Drug distribution in C57BL/6 mouse plasma 10 mg/kg, po and measured at 2 hrs post dose by LC-MS/MS analysis; type: ADME, organism-based
[32] = Drug distribution in C57BL/6 mouse adipose tissue 10 mg/kg, po and measured at 2 hrs post dose by LC-MS/MS analysis; type: ADME, organism-based; conditions: read-out: Ct
[33] = Apparent permeability across apical to basolateral side in MDCK cells at 2.5 uM for 90 mins; type: ADME, cell-based, Canis lupus familiaris; conditions: dog
[34] = Drug distribution in C57BL/6 mouse liver 10 mg/kg, po and measured at 1 hrs post dose by LC-MS/MS analysis; type: ADME, organism-based; conditions: read-out: Ct
[35] = Clearance in Wistar rat at 3 mg/kg, iv or 10 mg/kg, po and measured up to 24 hrs by LC-MS/MS analysis; type: ADME, organism-based; conditions: in vivo
[36] = Tmax in Wistar rat at 3 mg/kg, iv or 10 mg/kg, po and measured up to 24 hrs by LC-MS/MS analysis; type: ADME, organism-based; conditions: in vivo
CYP1A2 = biological target: T1, CYP1A2 (Homo sapiens, UniProt P05177); assay: Inhibition of recombinant human CYP1A2 at 25 uM by fluorescence plate reader analysis; type: ADME
T1 sequence (P05177 whole entry): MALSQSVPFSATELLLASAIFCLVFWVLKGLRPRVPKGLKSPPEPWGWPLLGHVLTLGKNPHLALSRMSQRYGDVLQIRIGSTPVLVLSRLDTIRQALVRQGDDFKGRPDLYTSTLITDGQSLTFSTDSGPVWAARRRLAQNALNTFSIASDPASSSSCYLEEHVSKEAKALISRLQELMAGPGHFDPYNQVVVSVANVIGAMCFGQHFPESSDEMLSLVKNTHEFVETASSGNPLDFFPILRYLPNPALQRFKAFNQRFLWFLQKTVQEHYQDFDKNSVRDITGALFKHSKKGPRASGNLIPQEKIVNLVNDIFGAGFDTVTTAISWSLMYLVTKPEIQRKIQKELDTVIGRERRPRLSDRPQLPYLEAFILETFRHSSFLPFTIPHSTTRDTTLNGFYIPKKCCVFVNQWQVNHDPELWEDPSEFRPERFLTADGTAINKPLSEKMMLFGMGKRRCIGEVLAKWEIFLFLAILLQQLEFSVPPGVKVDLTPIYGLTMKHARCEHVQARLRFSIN

CYP2C9 = CYP2C9 (Homo sapiens, UniProt P11712); assay: Inhibition of recombinant human CYP2C9 at 25 uM by fluorescence plate reader analysis; type: ADME
CYP3A4 = CYP3A4 (Homo sapiens, UniProt P08684); assay: Inhibition of recombinant human CYP3A4 at 25 uM by fluorescence plate reader analysis; type: ADME
[37] = biological target: T2, Diacylglycerol O-acyltransferase 1 (Homo sapiens, UniProt O75907); assay: Inhibition of human DGAT1 in serum starved HEK293 cells assessed as inhibition of triglyceride synthesis incubated for 20 mins followed by 13C-addition of 13C-oleic acid pre-complexed with BSA for 120 mins by LC-MS-based mass spectrophotometric analysis; type: cell-based
T2 sequence (O75907 whole entry): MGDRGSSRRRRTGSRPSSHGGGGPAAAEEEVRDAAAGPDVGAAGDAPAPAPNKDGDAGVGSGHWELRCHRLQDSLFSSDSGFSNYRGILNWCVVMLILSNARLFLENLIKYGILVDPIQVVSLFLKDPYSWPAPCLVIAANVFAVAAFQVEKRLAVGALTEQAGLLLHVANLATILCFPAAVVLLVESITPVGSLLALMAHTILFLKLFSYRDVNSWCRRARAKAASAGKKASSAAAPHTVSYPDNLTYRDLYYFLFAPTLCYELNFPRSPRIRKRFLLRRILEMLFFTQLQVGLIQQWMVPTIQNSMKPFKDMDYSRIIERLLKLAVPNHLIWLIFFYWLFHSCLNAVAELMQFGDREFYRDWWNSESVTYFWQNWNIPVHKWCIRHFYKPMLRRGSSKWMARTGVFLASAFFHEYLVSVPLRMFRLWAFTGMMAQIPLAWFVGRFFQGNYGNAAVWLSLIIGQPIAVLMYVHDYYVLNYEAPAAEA

Chain of hERG (KCNH2) (Q12809 whole entry): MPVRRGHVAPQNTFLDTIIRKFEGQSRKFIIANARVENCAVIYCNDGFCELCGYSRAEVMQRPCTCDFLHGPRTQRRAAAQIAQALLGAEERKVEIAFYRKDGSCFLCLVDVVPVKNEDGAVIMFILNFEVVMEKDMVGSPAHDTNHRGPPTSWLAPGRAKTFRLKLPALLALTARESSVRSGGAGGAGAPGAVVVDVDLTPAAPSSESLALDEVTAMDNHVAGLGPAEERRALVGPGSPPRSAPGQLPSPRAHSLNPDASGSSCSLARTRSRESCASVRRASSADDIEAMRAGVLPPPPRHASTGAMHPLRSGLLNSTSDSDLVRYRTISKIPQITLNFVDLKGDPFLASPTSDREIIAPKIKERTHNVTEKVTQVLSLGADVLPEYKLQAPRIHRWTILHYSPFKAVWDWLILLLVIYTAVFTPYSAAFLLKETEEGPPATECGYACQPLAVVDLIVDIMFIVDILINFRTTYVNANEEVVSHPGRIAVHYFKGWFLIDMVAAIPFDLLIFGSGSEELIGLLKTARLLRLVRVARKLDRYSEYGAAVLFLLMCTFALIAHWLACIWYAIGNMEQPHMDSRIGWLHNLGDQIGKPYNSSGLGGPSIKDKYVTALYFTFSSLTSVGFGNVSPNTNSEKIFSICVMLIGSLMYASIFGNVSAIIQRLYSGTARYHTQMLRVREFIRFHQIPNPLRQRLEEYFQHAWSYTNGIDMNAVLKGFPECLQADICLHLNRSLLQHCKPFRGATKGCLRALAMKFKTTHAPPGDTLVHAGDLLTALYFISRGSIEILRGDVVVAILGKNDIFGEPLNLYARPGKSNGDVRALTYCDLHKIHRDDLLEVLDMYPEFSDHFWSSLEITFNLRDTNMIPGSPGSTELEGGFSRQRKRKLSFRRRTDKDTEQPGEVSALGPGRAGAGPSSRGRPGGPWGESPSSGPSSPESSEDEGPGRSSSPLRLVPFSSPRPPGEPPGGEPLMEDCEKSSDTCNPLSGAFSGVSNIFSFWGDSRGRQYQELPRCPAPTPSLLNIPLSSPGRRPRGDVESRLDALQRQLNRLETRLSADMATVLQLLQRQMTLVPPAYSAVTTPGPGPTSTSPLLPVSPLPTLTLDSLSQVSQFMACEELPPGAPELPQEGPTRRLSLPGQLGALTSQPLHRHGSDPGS
Chain of CYP3A4 (P08684 whole entry): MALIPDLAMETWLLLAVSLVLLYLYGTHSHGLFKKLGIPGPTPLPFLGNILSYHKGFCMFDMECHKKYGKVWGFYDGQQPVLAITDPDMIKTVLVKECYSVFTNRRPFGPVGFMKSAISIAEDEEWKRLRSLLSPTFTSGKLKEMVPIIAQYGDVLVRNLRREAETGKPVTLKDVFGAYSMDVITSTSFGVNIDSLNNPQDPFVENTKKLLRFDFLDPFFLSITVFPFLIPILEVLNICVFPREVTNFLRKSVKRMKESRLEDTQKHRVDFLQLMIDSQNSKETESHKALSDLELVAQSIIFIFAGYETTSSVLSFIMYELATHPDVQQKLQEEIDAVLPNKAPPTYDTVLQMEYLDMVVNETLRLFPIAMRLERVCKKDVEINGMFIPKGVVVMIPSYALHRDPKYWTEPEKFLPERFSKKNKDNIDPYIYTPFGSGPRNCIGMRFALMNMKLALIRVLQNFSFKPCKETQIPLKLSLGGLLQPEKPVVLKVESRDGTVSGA
Chain of CYP2C9 (P11712 whole entry): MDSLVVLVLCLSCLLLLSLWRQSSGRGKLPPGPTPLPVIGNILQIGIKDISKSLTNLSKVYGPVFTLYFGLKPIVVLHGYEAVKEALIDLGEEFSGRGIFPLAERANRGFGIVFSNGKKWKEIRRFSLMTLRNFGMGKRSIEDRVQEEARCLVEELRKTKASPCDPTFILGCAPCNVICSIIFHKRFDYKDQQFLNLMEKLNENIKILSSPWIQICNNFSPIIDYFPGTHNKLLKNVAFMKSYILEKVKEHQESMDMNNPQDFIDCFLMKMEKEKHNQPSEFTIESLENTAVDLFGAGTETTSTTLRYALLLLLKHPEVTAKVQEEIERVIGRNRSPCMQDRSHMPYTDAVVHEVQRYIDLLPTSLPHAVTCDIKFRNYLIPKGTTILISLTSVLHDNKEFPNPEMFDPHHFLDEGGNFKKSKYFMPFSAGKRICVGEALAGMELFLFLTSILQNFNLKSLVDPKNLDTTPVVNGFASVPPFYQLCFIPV

## O=C(O)CC1CCC2(CC1)CCN(c1ccc(NC(=O)c3nnc(Nc4ccc(F)c(F)c4)o3)cn1)CC2 [listing 1 of 2 here]
Mus musculus [1]
  inhibition: Active
Mus musculus [2]
  inhibition: Active

## O=C(O)CC1CCC2(CC1)CCN(c1ccc(NC(=O)c3nnc(Nc4ccc(F)c(F)c4)o3)cn1)CC2 [listing 2 of 2 here]
[3]
  concentration at 1 h: 160 nM
[4]
  half-life: 3.1 h
[5]
  concentration at 8 h: 60 nM
[6]
  clearance: 60 mL/min/kg
[7]
  concentration at 2 h: 50 nM
[8]
  fraction unbound: 0.01
[9]
  AUC at 24 h: 1.6 µM·h
[10]
  concentration at 8 h: 10 nM
[11]
  Cmax: 1000 nM
[12]
  bioavailability: 41%
[13]
  Vd: 13 L/kg
[14]
  concentration at 8 h: 22200 nM
[15]
  concentration at 2 h: 54900 nM
[16]
  Cmax: 9200 nM
hERG (KCNH2)
  inhibition at 2 h, 10 µM: 10%
[17]
  concentration at 1 h: 1870 nM
[18]
  remaining at 0.5 h, 1 µM: 84%
[19]
  remaining at 0.5 h, 1 µM: 78%
[20]
  Tmax: 0.25 h
[21]
  half-life: 5.7 h
[22]
  Vd: 0.6 L/kg
[23]
  concentration at 1 h: 100 nM
[24]
  concentration at 1 h: 10 nM
[25]
  bioavailability: 38%
[26]
  concentration at 2 h: 10 nM
[27]
  concentration at 8 h: 10 nM
[28]
  AUC at 24 h: 30 µM·h
[29]
  fraction unbound: 0.01
[30]
  remaining at 0.5 h, 1 µM: 100%
[31]
  concentration at 2 h: 1460 nM
[32]
  concentration at 2 h: 150 nM
[33]
  Papp A→B at 1.5 h, 2.5 µM: 5.3 ×10⁻⁶ cm/s
[34]
  concentration at 1 h: 39200 nM
[35]
  clearance: 3.3 mL/min/kg
[36]
  Tmax: 1.4 h

## O=C(Nc1ccc(C2CCC3(CC2)CC(C(=O)O)C3)cc1)c1nnc(Nc2ccc(F)c(F)c2)o1 (configuration not stated)
CYP1A2
  inhibition at 25 µM: 18%
CYP2C9
  inhibition at 25 µM: 24%
CYP3A4
  inhibition at 25 µM: 16%

## O=C(O)CC1CCC2(CC1)CCC(c1ccc(NC(=O)c3nnc(Nc4ccc(F)c(F)c4)o3)cc1)CC2 (stereo in doubt; 8)
[8]
  fraction unbound: < 0.01
[37]
  IC50: 14.6 nM
hERG (KCNH2)
  inhibition at 2 h, 10 µM: 18%
[18]
  remaining at 0.5 h, 1 µM: 96%
[19]
  remaining at 0.5 h, 1 µM: 97%
[29]
  fraction unbound: 0.01
[30]
  remaining at 0.5 h, 1 µM: 100%
